Consider three molecules from patent EP4219453A1 (Sichuan Kelun-Biotech Biopharmaceutical Co., Ltd., priority 2020, dated 2022).

In general, IC50 refers to the concentration needed to halve the response being measured.

One assay concerns the target TGFβR2 (Homo sapiens, UniProt P37173). Kind of assay: In vitro enzymatic activity inhibition test (TGFβR2), ADP-Glo Kinase Detection Kit. In kind it is biochemical. Conditions: MBP substrate, calculated from percent inhibition at 1000nM, 100nM, 10nM. How it is done: Test Example 2: In vitro enzymatic activity inhibition test (TGFβR2).
(§1) Experimental method: According to the instructions of ADP-Glo™ Kinase Detection Kit (Promega), the inhibitory effect of the compounds of the present invention on the enzymatic activity of TGFβR2 was determined, and the steps were as follows: TGFβR2 enzyme were pre-incubated with different concentrations of test compounds (1000nM, 100nM, 10nM) at 30°C for 30 min, myelin basic protein (MBP) and adenosine triphosphate (ATP) were added to initiate the reaction. The incubation was performed at 30°C for 3 h, followed by an addition of ADP-Glo™ reagent and incubated at room temperature for 90 min, kinase detection reagent was then added. The chemiluminescence signal values were detected after incubation at room temperature for another 30 min.
When the percent inhibition was between 30% and 80%, the median inhibitory concentration (IC50) or range of the compound was calculated according to the following formula: IC50 = X × (1 - percent inhibition rate (%)) / percent inhibition rate (%), wherein X is the concentration of the compound at which the inhibition rate is between 30% and 80%.

A further assay has as its target T1, TGFβR1 (Homo sapiens, UniProt P36897).
T1 sequence (P36897 34-503): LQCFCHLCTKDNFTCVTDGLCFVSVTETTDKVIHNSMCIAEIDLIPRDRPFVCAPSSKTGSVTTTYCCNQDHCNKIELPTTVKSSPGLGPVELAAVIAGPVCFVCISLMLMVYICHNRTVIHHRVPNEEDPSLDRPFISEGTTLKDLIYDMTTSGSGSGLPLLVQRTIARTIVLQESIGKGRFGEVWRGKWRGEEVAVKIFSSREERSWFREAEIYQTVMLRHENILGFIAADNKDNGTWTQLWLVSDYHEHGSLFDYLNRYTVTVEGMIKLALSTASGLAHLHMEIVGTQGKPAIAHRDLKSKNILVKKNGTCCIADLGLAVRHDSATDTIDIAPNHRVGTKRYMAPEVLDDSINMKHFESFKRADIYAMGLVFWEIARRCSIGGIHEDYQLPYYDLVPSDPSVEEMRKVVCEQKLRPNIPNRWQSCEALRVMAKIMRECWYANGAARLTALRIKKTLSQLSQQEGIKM
In words: In vitro enzymatic activity inhibition test (TGFβR1), ADP-Glo Kinase Detection Kit. It is filed as biochemical. Particulars: calculated from percent inhibition at 1000 nM, 100 nM, 10 nM. As to the method: Test Example 1: In vitro enzymatic activity inhibition test (TGFβR1).
as §1, with “TGFβR1” for “TGFβR2”, “(1000 nM, 100 nM, 10 nM)” for “(1000nM, 100nM, 10nM)”, “TGFβR1 peptide” for “myelin basic protein (MBP)”, “Chemiluminescence” for “The chemiluminescence”
When the percent inhibition rate was between 30% and 80%, the median inhibitory concentration (IC50) or range of the compound was calculated according to the following formula: IC50 = X × (1 - percent inhibition rate (%)) / percent inhibition rate (%), wherein X is the concentration of the compound at which the inhibition rate is between 30% and 80%.

Assay [1] relates to TGFβ/Smads signaling pathway in HEK293-SBE cells. In words: In vitro cell activity inhibition test, Bright-Glo luciferase reporter in HEK293-SBE cells. In kind it is cell-based. Particulars: TGFβ 0.5 ng/ml, luciferase reporter gene method. How it is done: Test Example 3: In vitro cell activity inhibition test
Experimental method: According to the instructions of Bright-Glo™ luciferase detection kit (Promega), the inhibitory effect of the compounds of the present invention on TGFβ/Smads signaling pathway in HEK293-SBE cells was determined. The steps were as follows: HEK293-SBE cells (Bps bioscience) were added to a 96-well plate (10% FBS medium), 30,000/well, and cultured overnight at 37°C and 5% CO2. The medium was changed to 0.5% FBS medium, and the test compound diluted in 0.5% FBS medium was added. The highest final concentration of the test compound was 10 µM with 4-fold dilution, and a total of 8 concentration gradients. After 4-5 hours of incubation, 10 µl of TGFβ was added. The final concentration of TGFβ was 0.5 ng/ml. 10 µl of medium added in replace of TGFβ was the negative control. In the blank control, no test compound was added, and TGFβ was added. Bright Glo reagent was added to each well, and the chemiluminescence signal value was read on a microplate reader.
The percent inhibition rates of the test compound at different concentrations were plotted against the compound concentrations, the curve was fitted according to the four-parameter model, and the IC50 value was calculated by the following formula: y = Min + (Max - Min) / (1 + (x / IC50) ^ (-Hillslope)), wherein: y is percentage inhibition rate; Max and Min are the maximum and minimum values of the fitted curve, respectively; x is the logarithmic concentration of compound; and Hillslope is the slope of the curve.
In general terms: Reporter assays use an easily measured gene product as a stand-in for the process of interest.

Each structure is given as a SMILES string.

TGFβR2, sequence (P37173 23-567): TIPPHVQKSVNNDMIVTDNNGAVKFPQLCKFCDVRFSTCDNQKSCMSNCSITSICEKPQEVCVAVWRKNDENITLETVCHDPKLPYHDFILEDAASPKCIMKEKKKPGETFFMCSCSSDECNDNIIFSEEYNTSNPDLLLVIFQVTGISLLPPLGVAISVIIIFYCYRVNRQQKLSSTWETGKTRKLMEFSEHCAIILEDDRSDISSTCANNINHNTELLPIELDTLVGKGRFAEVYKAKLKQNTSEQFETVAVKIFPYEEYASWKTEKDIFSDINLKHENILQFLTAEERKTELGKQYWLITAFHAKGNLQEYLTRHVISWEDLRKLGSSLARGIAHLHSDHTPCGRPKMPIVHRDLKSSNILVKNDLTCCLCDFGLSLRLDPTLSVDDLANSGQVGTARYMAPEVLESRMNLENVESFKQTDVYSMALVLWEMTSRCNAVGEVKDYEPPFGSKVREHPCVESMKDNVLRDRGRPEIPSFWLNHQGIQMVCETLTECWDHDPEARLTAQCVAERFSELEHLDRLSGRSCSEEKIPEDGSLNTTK

As to `Cc1cccc(-n2nccc2-c2ccn3ncnc3c2)n1` [Example 2, 7-(1-(6-methylpyridin-2-yl)-1H-pyrazol-5-yl)-[1,2,4]triazolo[1,5-a]pyridine], the results for the concentration for half-maximal inhibition (IC50) at TGFβR2 and on TGFβR1 were > 1000 nM and 9.83 ± 4.79 nM, respectively.

Regarding `Cc1cccc(-n2nccc2-c2ccn3nccc3c2)n1` [Example 3, 5-(1-(6-methylpyridin-2-yl)-1H-pyrazol-5-yl) pyrazolo[1,5-a]pyridine], the IC50 at TGFβR2 was > 1000 nM; in assay [1] it was 29.1 ± 2.5 nM; on TGFβR1, 43.8 ± 6.08 nM.

As to `Cc1cc(CNc2cc(-c3ccc4ncsc4c3)n(-c3cccc(C)n3)n2)ccn1` [Example 9, 5-(benzo[d]thiazol-6-yl)-1-(6-methylpyridin-2-yl)-N-((2-methylpyridin-4-yl)methyl)-1H-pyrazol-3-amine], the results for the half-inhibitory concentration (IC50) (in assay [1]; at TGFβR1) were 43.2 ± 2.54 nM and 27.4 ± 4.89 nM, respectively.
